Test results: patent publication US5369111A, “Modulator agent and use thereof” (University of Vermont, priority 1992, dated 1994)
“Also recorded” adds a separate entry of the source. Where two headings read alike, the source gives them in different places.

Columns and labels:
S180/A3 cells = experiment: Inhibition of population growth (cytotoxicity), MDR strain S180/A3; type: cell-based, mouse
Description: (§1) The analogs were examined in a panel of tumor cell lines of both intrinsic and acquired drug resistance, as described in Table 1. The rat colon adenocarcinoma cell lines RCC-2 and RCC-5 (ref. 13) were maintained in Ham's F12 medium supplemented with 5% heat-inactivated, fetal bovine serum (Sterile Systems. Hyclone, Logan, Utah). The two rat colon cancer cell lines differ in their degree of cellular differentiation; whereas the RCC-2 cell line is undifferentiated, the RCC-5 cell line is highly mucinous. The human epidermoid carcinoma cell line KB-3-1 and its MDR variant KB-Vl, selected by VBL treatment (ref. 14; courtesy of M. Gottesman. National Cancer Institute), was maintained in DMEM medium supplemented with 10%, heat-inactivated, fetal bovine serum. The murine sarcoma cell line […] and its MDR strains A3 and A10 selected by ADM treatment (ref. 15; courtesy of T. Tritton, Dept. Pharmacology, Univ. Vermont). were maintained in DMEM medium supplemented with 10% heat-inactivated, horse serum (Hazelton Biolog. Lenexa, Kans.). Stock cultures were subcultured twice weekly upon reaching the late exponential phase of population growth: population doubling times were 18-24 h. Antibiotics were not used in stock or experimental cultures. The MDR cell strains were grown in drug-free media for 48 h prior to experimental use.
(§2) Mid-exponential cultures were used for all assays. The RCC-2 and RCC-5 cell lines were seeded into 24-well plates at 2×10^4 cells/well and allowed to attach to the substratum for 16-18 h prior to treatment. The S180 cell lines were seeded into culture tubes at 1×10^5 cells/ml and treated immediately. Cytotoxicity was determined by quantitation of population growth after 72 h incubation by electronic particle counter (Coulter Electronics, Hialeah, Fla.). The human tumor cell lines were used in a clonogenic assay for cytotoxicity. Cells were seeded at 300 cells/dish, incubated overnight and then treated. Colonies were scored 7-11 days later. In all assays of analog modulation of drug sensitivity, the analog was added minutes prior to the addition of cytotoxic drug.

S180/A10 cells [1] = experiment: Inhibition of population growth (cytotoxicity), MDR strain S180/A10; type: cell-based, mouse; conditions: 4320 min
Description: as §1, §2

KB-3-1 cells = experiment: Clonogenic assay for cytotoxicity, KB-3-1 parental; type: cell-based; conditions: Homo sapiens
Description: as §1, §2

RCC-5 cells = experiment: Inhibition of population growth (cytotoxicity), rat colon adenocarcinoma RCC-5; type: cell-based; conditions: Rattus norvegicus; RCC-5, 72 h
Procedure, shortened: (§3)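 Mid-exponential cultures; RCC-2 and RCC-5 seeded 2×10^4 cells/well, attached 16–18 h before treatment; S180 lines seeded 1×10^5 cells/ml and treated at once. MDR strains drug-free 48 h before use. Population growth counted by electronic particle counter after 72 h exposure.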

RCC-2 cells = experiment: Inhibition of population growth (cytotoxicity), rat colon adenocarcinoma RCC-2; type: cell-based; conditions: Rattus norvegicus; RCC-2, 72 h
Procedure, shortened: as §3

P388 R cells = experiment: Viability (MTT test) of P388 R cells; type: cell-based, mouse; conditions: for resistance of P388 R cells to cytotoxic activity of the drug: FIGS. 12 to 14
Description: The sensitization of C-20'-deoxy C-20'-deethyl vincovaline (D-DEV) has been tested on sensitive and resistants P388 cell lines originating from mouse lympnoma.
The resistance to anticancerous drug has been induced on DBA2 mouses bearing P388 cells ascites and maintained by treatment with adryamycin.
This study has been carried out at least in triplicate.

KB-V1 cells = experiment: Clonogenic assay for cytotoxicity, MDR variant KB-V1; type: cell-based, human; conditions: for Relative resistance: IC50 in KB-V1 divided by IC50 of parental, Table I
Description: as §1, §2
FIG. 10 represents the potency of the analog C-20'-deoxy deethyl vincovaline as a modulator of the drug sensitivity of various cell lines: the parental S180 cell line: the two rat colon cancer cell lines, RCC-2 and RCC-5; and the human epidermoid carcinoma cell line KB-3-1 and its MDR cell strain KB-V1, which expresses very high levels of drug resistance (200-500 fold). The enhancement of sensitivity was calculated as the sensitivity index =IC50 of the drug alone divided by the IC50 of the drug+analog. The drugs examined were ADM (o), VBL (Δ), and VCR (.quadrature.). The cytotoxicity of drug and analog treatments in the KB cell lines were measured by cloning efficiencies. The arrows denote the non-toxic concentration limit of the analog in each cell line.

S180 cells, parental [2] = experiment: Inhibition of population growth (cytotoxicity), S180 sarcoma, parental; type: cell-based, mouse; conditions: Mus musculus; for IC70: S-180, 72 h, parental S180; for IC50: S-180
Procedure, shortened: as §3

[3] = Inhibition of population growth (cytotoxicity), MDR strain S180/A3; type: cell-based, mouse; conditions: mouse, s180/a3 cells; read-out: non-toxic concentration limit for the modulator
Description: as §1, §2

S180/A10 cells [4] = experiment: Modulator potency in MDR cells: reversal of acquired resistance, S180/A10; type: cell-based, murine; conditions: A10 cells, 90 fold ADM resistance
Procedure, shortened: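 S180/A3 and S180/A10 MDR cells at 1×10^5 cells/ml exposed to a modulator concentration range, added minutes before VBL, VCR or ADM at parental-cell IC70s. Growth counted by electronic particle counter after 72 h. Value is the minimal modulator concentration restoring 70% growth inhibition; mean of 2-3 experiments.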

[5] = Inhibition of population growth (cytotoxicity), MDR strain S180/A10; type: cell-based, mouse; conditions: mouse, s180/a10 cells; read-out: non-toxic concentration limit for the modulator
Description: as §1, §2

[6] = system: S180 cell system (S180, A3, A10); experiment: Inherent cytotoxicity in the S180 cell system (S180, A3, A10); type: cell-based, murine; conditions: for IC50: Mus musculus; for inherent cytotoxicity / resistance profile (in words): S180, A3, A10
Description: as §1, §2
FIG. 2 represents the toxicity of the vinca alkaloid compounds to population growth. Vindoline, vincovaline or the analog, C-20'-deoxy vincovaline was added, at various concentrations, to S180 (.cndot.), A3 (o), or A10 (Δ) cell cultures. The population cell number was determined 72 hours later.

[7] = system: S180 MDR cell strains A3 and A10; experiment: Modulation of acquired drug resistance in the S180 MDR cell strains A3 and A10; type: cell-based, murine; conditions: A3 and A10
Procedure, shortened: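 MDR S180 lines in tubes (1×10^5 cells/ml) exposed to graded modulator added minutes before ADM, VBL or VCR at parental IC70s (2.0×10^-7 M ADM, 1.5×10^-8 M VBL, 4.5×10^-8 M VCR). Growth counted electronically at 72 h. Reversing concentration = minimum modulator giving 70% inhibition; duplicates, two experiments.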

S180 cells, parental [8] = experiment: Modulation of intrinsic drug resistance, parental S180; type: cell-based, murine; conditions: for modulation of sensitivity of parental S180 cells to VBL, VCR and ADM (in words): all three drugs; for effect on VBL toxicity in parental S180 cells (in words): 50-fold concentration range
Procedure, shortened: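 Parental S180 cells at 1×10^5 cells/ml treated with modulator (10^-6 M up to non-toxic IC10-20 or solubility limit) added minutes before VBL, VCR or ADM; growth counted electronically after 72 h. Sensitivity index = drug IC50 alone / drug IC50 with modulator; duplicates from two experiments.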

RCC-2 and RCC-5 cells = experiment: Modulation of intrinsic drug resistance, RCC-2 and RCC-5; type: cell-based, rat; conditions: at the non-toxic concentration limit of 1-2 μM
Method: as §2

[9] = Inhibition of population growth of rat colon cancer cell lines RCC-2 and RCC-5; type: cell-based; conditions: rat, rcc-2 and rcc-5 cells; read-out: non-toxic concentration limit
Description: The analogs were examined in a panel of tumor cell lines of both intrinsic and acquired drug resistance, as described in Table 1. The rat colon adenocarcinoma cell lines RCC-2 and RCC-5 (ref. 13) were maintained in Ham's F12 medium supplemented with 5% heat-inactivated, fetal bovine serum (Sterile Systems. Hyclone, Logan, Utah). The two rat colon cancer cell lines differ in their degree of cellular differentiation; whereas the RCC-2 cell line is undifferentiated, the RCC-5 cell line is highly mucinous. The human epidermoid carcinoma cell line KB-3-1 and its MDR variant KB-Vl, selected by VBL treatment (ref. 14; courtesy of M. Gottesman. National Cancer Institute), was maintained in DMEM medium supplemented with 10%, heat-inactivated, fetal bovine serum. […]
Mid-exponential cultures were used for all assays. […] Cytotoxicity was determined by quantitation of population growth after 72 h incubation by electronic particle counter (Coulter Electronics, Hialeah, Fla.). […] Colonies were scored 7-11 days later. […]
FIG. 7 represents the toxicity of analog C-20'-deoxy vincovaline (A) and C-20'-deoxy deethyl vincovaline (B) to population growth of the rat colon adenocarcinoma cell lines. The congener was added at various concentrations to RCC-2 (.cndot.) and RCC-5 (Δ) cell cultures and the population cell number was determined 72 hours later. […]

[10] = A3, IC50 resistant / IC50 parental, Table II, 4320 min
[11] = IC50 in S180/A3 divided by IC50 of parental, Table I
[12] = A10, IC50 resistant / IC50 parental, Table II
[13] = IC50 in S180/A10 divided by IC50 of parental, Table I
[14] = listed as C-20'-deoxy Vincovaline

SMILES	Relative resistance (S180/A3 cells; [10])	Relative resistance (S180/A3 cells; [11])	Relative resistance (S180/A10 cells [1]; [12])	Relative resistance (S180/A10 cells [1]; [13])	IC50 (KB-3-1 cells)	IC50 (RCC-5 cells)	IC50 (RCC-2 cells)	resistance of P388 R cells to cytotoxic activity of the drug (P388 R cells)	resistance of KB-V1 to the drug (KB-V1 cells)	Relative resistance (KB-V1 cells)	IC70 (S180 cells, parental [2])	IC50 (S180 cells, parental [2]; S180, parental, Table II)	IC50 (S180 cells, parental [2]; S180 parental, 72 h, Table I)	reversal of high level ADM resistance (in words) (S180/A10 cells [4])	inherent cytotoxicity / resistance profile (in words) [6]	modulation of cellular resistance to VBL, VCR and ADM in MDR cell strains (in words) [7]	further results
CC[C@]1(O)C[C@H]2CN(CCc3c([nH]c4ccccc34)[C@@](C(=O)OC)(c3cc4c(cc3OC)N(C=O)[C@H]3[C@@](O)(C(=O)OC)[C@H](OC(C)=O)[C@]5(CC)C=CCN6CC[C@]43[C@@H]65)C2)C1 [VCR, vincristine]	10	7	20	17	2 nM	15 nM	5 nM	resistance of P388 R cells to cytotoxic activity	≥ 200 fold	400	45 nM	30 nM	30 nM	–	–	–	vincristine cytotoxicity towards P388 R cells (P388 R cells; 0.1 nM to 0.054 μM, 24 hours): lack of vincristine cytotoxicity
COc1cccc2c1C(=O)c1c(O)c3c(c(O)c1C2=O)C[C@@](O)(C(=O)CO)C[C@@H]3O[C@H]1C[C@H](N)[C@H](O)[C@H](C)O1 [ADM, adriamycin]	15	15	90	90	15 nM	50 nM	10 nM	resistance of P388 R cells to cytotoxic activity	≥ 200 fold	500	200 nM	100 nM	100 nM	–	–	–	adriamycin cytotoxicity in P388 R cells (P388 R cells; 0.17 to 4.31 μM, 37° C., 24 and 48 hours): lack of adriamycin cytotoxicity
CC[C@@]1(O)C[C@H]2CN(CCc3c([nH]c4ccccc34)[C@](C(=O)OC)(c3cc4c(cc3OC)N(C)[C@H]3[C@@](O)(C(=O)OC)[C@H](OC(C)=O)[C@]5(CC)C=CCN6CC[C@]43[C@@H]65)C2)C1 [vincovaline, C-14', 16', 20'-epi-VBL]	–	–	–	–	–	–	–	–	–	–	–	–	–	limited in this activity by their own cytoxicity in the MDR cell lines	cross-resistance	significant activity with MDR cells is coincident with its non-toxic concentration limit in each cell line	MNTC at 72 h [3]: 20 µM; MNTC at 72 h [5]: 50 µM; IC50 ([6]; S-180, S180 parental and MDR cell lines, read-out: IC50 (inhibition of cell growth)): > 10000 nM; modulation of cellular resistance to VBL, VCR and ADM in MDR cell strains (in words) ([7]; listed as C-14', 16', 20'-epi-VBL): modulators of cellular resistance to VBL, VCR and ADM; modulation of sensitivity of parental S180 cells to VBL, VCR and ADM (in words) (S180 cells, parental [8]): sensitized the parental S180 cells to all three drugs; modulation of sensitivity of parental S180 cells to VBL, VCR and ADM (in words) (S180 cells, parental [8]; listed as Vincovaline): weak modulator of drug sensitivity; also recorded: poor modulator of drug sensitivity in the parental cell line
CC[C@H]1C[C@H]2CN(CCc3c([nH]c4ccccc34)[C@](C(=O)OC)(c3cc4c(cc3OC)N(C)[C@H]3[C@@](O)(C(=O)OC)[C@H](OC(C)=O)[C@]5(CC)C=CCN6CC[C@]43[C@@H]65)C2)C1 [C-20'-deoxy vincovaline, C-20'-deoxy C-14', 16', 20'-epi-VBL]	–	–	–	–	–	–	–	–	–	–	–	–	–	reversing completely the high level ADM resistance (90 fold)	very weak cytotoxic agent	reverses MDR in the A3 and A10 cell strains, without evidence of drug-specificity	IC50 ([6]; S-180, read-out: IC50 (inhibition of cell growth)): > 10000 nM; inherent cytotoxicity / resistance profile (in words) ([6]; 16', 20'-epi-VBL): cross-resistance; non-toxic concentration limit (in words) ([6]; S180 cell system): beyond the limits of solubility; modulation of cellular resistance to VBL, VCR and ADM in MDR cell strains (in words) ([7]; 16', 20'-epi-VBL): modulators of cellular resistance to VBL, VCR and ADM; sensitization to VBL, VCR and ADM (RCC-2 and RCC-5 cells): 2- to 4 fold; effect on VBL toxicity in parental S180 cells (in words) (S180 cells, parental [8]): no effect on cell sensitivity to VBL; effect on VBL toxicity in parental S180 cells (in words) (S180 cells, parental [8]; [14]): no effect on VBL toxicity; modulation of VCR and ADM cytotoxicity in parental S180 cells (in words) (S180 cells, parental [8]): progressive sensitization of the cells to the drug with increasing analog concentrations; also recorded: similar, concentration-dependent enhancement of VCR and ADM cytotoxicity; also recorded: sensitizes S180 cells to ADM and VCR but not to VBL; modulation of VCR and ADM cytotoxicity in parental S180 cells (in words) (S180 cells, parental [8]; [14]): similar, concentration-dependent enhancement; modulation of VCR and ADM cytotoxicity in parental S180 cells (in words) (S180 cells, parental [8]; listed as C-29'-deoxy vincovaline): most potent modulator of intrinsic resistance to ADM and VCR; MNTC at 72 h [9]: 1000 to 2000 nM
